Measured values: PubChem BioAssay (NCI)
Where “and” joins values, the source holds several entries; their conditions need not be identical. Equal values may be shown once.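 Method: 48-hour compound exposure of cells in 96-well plates, five concentrations, linear interpolation of endpoints. The concentration for 50% growth inhibition is given as GI50. At the TGI there is no net growth.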

Columns and labels:
Assay in all cases: NCI tumour cell line growth inhibition, 48 h
BT-549 breast = test system: BT-549 breast
CAKI-1 renal = test system: CAKI-1 renal
DU-145 prostate = test system: DU-145 prostate
KM12 colon = test system: KM12 colon
LOX IMVI melanoma = test system: LOX IMVI melanoma
MOLT-4 leukemia = test system: MOLT-4 leukemia
NCI-H460 lung = test system: NCI-H460 lung
NCI-H522 lung = test system: NCI-H522 lung
SK-MEL-2 melanoma = test system: SK-MEL-2 melanoma
SK-OV-3 ovarian = test system: SK-OV-3 ovarian

COc1cc(C(=O)Nc2cc(O)c(C/C=C(\C)CCC=C(C)C)c(O)c2)cc2c1O[C@]1(C)CC[C@@H](O)C(C)(C)[C@H]1C2
TGI (BT-549 breast): 5.23 µM | GI50 (CAKI-1 renal): 0.0394 µM | TGI (CAKI-1 renal): 11.9 µM | GI50 (DU-145 prostate): 1.88 µM and 0.331 µM | TGI (DU-145 prostate): 13.1 µM | GI50 (KM12 colon): 2.39 µM and 1.52 µM | TGI (KM12 colon): 12.8 µM | GI50 (LOX IMVI melanoma): 0.0626 µM and 0.0809 µM | TGI (LOX IMVI melanoma): 2.7 µM and 1.92 µM | GI50 (MOLT-4 leukemia): 0.0298 µM | TGI (MOLT-4 leukemia): 1.54 µM | GI50 (NCI-H460 lung): 0.083 µM and 0.101 µM | TGI (NCI-H460 lung): 13.5 µM | GI50 (NCI-H522 lung): 7 µM and 1.29 µM | TGI (NCI-H522 lung): 11.6 µM | GI50 (SK-MEL-2 melanoma): 0.0833 µM and 0.215 µM | TGI (SK-MEL-2 melanoma): 3.08 µM | GI50 (SK-OV-3 ovarian): 0.0926 µM and 0.114 µM | TGI (SK-OV-3 ovarian): 22.7 µM

Cc1cc(O)c(O)c(Oc2cc(C)cc(O)c2O)c1
TGI (BT-549 breast): 78.9 µM | TGI (CAKI-1 renal): > 100 µM | TGI (DU-145 prostate): > 100 µM | TGI (KM12 colon): > 100 µM | TGI (LOX IMVI melanoma): 24.6 µM | TGI (MOLT-4 leukemia): > 100 µM | TGI (NCI-H460 lung): 26.6 µM | TGI (NCI-H522 lung): 34.8 µM | TGI (SK-MEL-2 melanoma): > 100 µM | TGI (SK-OV-3 ovarian): > 100 µM

CCNC(=O)c1ccc2c(c1)nc(-c1ccc(Cl)cc1)n2-c1cc(C(C)(C)C)[nH]n1
GI50 (BT-549 breast): 4.53 µM | TGI (BT-549 breast): 18.2 µM | GI50 (CAKI-1 renal): 2.84 µM | TGI (CAKI-1 renal): 46.6 µM | GI50 (DU-145 prostate): 3.72 µM | TGI (DU-145 prostate): 34.9 µM | GI50 (KM12 colon): 3.12 µM | TGI (KM12 colon): 36.8 µM | GI50 (LOX IMVI melanoma): 3.54 µM | TGI (LOX IMVI melanoma): 14.4 µM | GI50 (MOLT-4 leukemia): 3.49 µM | TGI (MOLT-4 leukemia): 25.1 µM | GI50 (NCI-H460 lung): 3.53 µM | TGI (NCI-H460 lung): 12.5 µM | GI50 (NCI-H522 lung): 2.7 µM | TGI (NCI-H522 lung): 9.6 µM | GI50 (SK-MEL-2 melanoma): 2.81 µM | TGI (SK-MEL-2 melanoma): 8.15 µM | GI50 (SK-OV-3 ovarian): 3.6 µM | TGI (SK-OV-3 ovarian): 17.3 µM

COC(=O)c1cc(NC(=O)CN(CCN(CC(=O)O)CC(=O)Nc2ccc(O)c(C(=O)OC)c2)CC(=O)O)ccc1O
GI50 (BT-549 breast): 52.1 µM | TGI (BT-549 breast): > 100 µM | GI50 (CAKI-1 renal): 32 µM | TGI (CAKI-1 renal): > 100 µM | GI50 (DU-145 prostate): 31.9 µM | TGI (DU-145 prostate): > 100 µM | GI50 (KM12 colon): > 100 µM | TGI (KM12 colon): > 100 µM | GI50 (LOX IMVI melanoma): 38.5 µM | TGI (LOX IMVI melanoma): > 100 µM | GI50 (MOLT-4 leukemia): 28.5 µM | TGI (MOLT-4 leukemia): > 100 µM | GI50 (NCI-H460 lung): 28.3 µM | TGI (NCI-H460 lung): > 100 µM | GI50 (NCI-H522 lung): 46.4 µM | TGI (NCI-H522 lung): > 100 µM | GI50 (SK-MEL-2 melanoma): > 100 µM | TGI (SK-MEL-2 melanoma): > 100 µM | GI50 (SK-OV-3 ovarian): 45.5 µM | TGI (SK-OV-3 ovarian): > 100 µM

Nc1ncnc2c1c(C(=O)NO)cn2C1OC(CO)C(O)C1O (configuration not stated)
GI50 (BT-549 breast): 0.426 µM | TGI (BT-549 breast): 19.2 µM | GI50 (CAKI-1 renal): 0.213 µM | TGI (CAKI-1 renal): 2.5 µM | GI50 (DU-145 prostate): 0.224 µM | GI50 (KM12 colon): 0.267 µM | GI50 (LOX IMVI melanoma): 0.262 µM | TGI (LOX IMVI melanoma): 1.77 µM | GI50 (MOLT-4 leukemia): 0.306 µM | TGI (MOLT-4 leukemia): 1.66 µM | GI50 (NCI-H460 lung): 0.431 µM | TGI (NCI-H460 lung): 9.19 µM | GI50 (NCI-H522 lung): 0.435 µM | TGI (NCI-H522 lung): 4.62 µM | GI50 (SK-MEL-2 melanoma): 0.333 µM | TGI (SK-MEL-2 melanoma): 1.92 µM | GI50 (SK-OV-3 ovarian): 0.239 µM | TGI (SK-OV-3 ovarian): 2.07 µM

COc1cc(/C=N/Nc2ncnc3c2cnn3Cc2ccccc2)ccc1O
GI50 (BT-549 breast): 12.2 µM | TGI (BT-549 breast): > 25 µM | GI50 (CAKI-1 renal): > 19.9 µM | TGI (CAKI-1 renal): > 25 µM | GI50 (DU-145 prostate): 12.2 µM | TGI (DU-145 prostate): > 25 µM | GI50 (KM12 colon): 7.68 µM | TGI (KM12 colon): > 25 µM | GI50 (LOX IMVI melanoma): > 17.7 µM | TGI (LOX IMVI melanoma): > 25 µM | GI50 (MOLT-4 leukemia): > 25 µM | TGI (MOLT-4 leukemia): > 25 µM | GI50 (NCI-H460 lung): 8.98 µM | TGI (NCI-H460 lung): > 25 µM | GI50 (NCI-H522 lung): 5.37 µM | TGI (NCI-H522 lung): > 22.8 µM | GI50 (SK-MEL-2 melanoma): 16.7 µM | TGI (SK-MEL-2 melanoma): > 25 µM | GI50 (SK-OV-3 ovarian): 5.99 µM | TGI (SK-OV-3 ovarian): 16.8 µM

CNC(=O)c1c(NC(=O)c2ccc(C(C)C)cc2)sc2c1CCC(=O)C2
GI50 (BT-549 breast): 0.505 µM | TGI (BT-549 breast): 2.71 µM | GI50 (CAKI-1 renal): 0.31 µM | TGI (CAKI-1 renal): 1.5 µM | GI50 (DU-145 prostate): 3.25 µM | TGI (DU-145 prostate): 12.2 µM | GI50 (KM12 colon): 0.404 µM | TGI (KM12 colon): 1.69 µM | GI50 (LOX IMVI melanoma): 0.24 µM | TGI (LOX IMVI melanoma): 1.29 µM | GI50 (MOLT-4 leukemia): 0.5 µM | TGI (MOLT-4 leukemia): 7.91 µM | GI50 (NCI-H460 lung): 0.58 µM | TGI (NCI-H460 lung): 2.82 µM | GI50 (NCI-H522 lung): 0.149 µM | TGI (NCI-H522 lung): 1.04 µM | GI50 (SK-MEL-2 melanoma): 1.6 µM | TGI (SK-MEL-2 melanoma): 5.96 µM | GI50 (SK-OV-3 ovarian): 2.47 µM | TGI (SK-OV-3 ovarian): 9.09 µM

C=CCCC(O)c1ccc(CCCCCCCCCCC)o1 (configuration not stated)
GI50 (BT-549 breast): 16.7 µM | TGI (BT-549 breast): 30.7 µM | GI50 (CAKI-1 renal): 16 µM | TGI (CAKI-1 renal): 31.5 µM | GI50 (DU-145 prostate): 16.4 µM | TGI (DU-145 prostate): 31.1 µM | GI50 (KM12 colon): 20.6 µM | TGI (KM12 colon): 51 µM | GI50 (LOX IMVI melanoma): 31.8 µM | TGI (LOX IMVI melanoma): 47.2 µM | GI50 (MOLT-4 leukemia): 29.9 µM | TGI (MOLT-4 leukemia): > 100 µM | GI50 (NCI-H460 lung): 28.9 µM | TGI (NCI-H460 lung): > 100 µM | GI50 (NCI-H522 lung): 17 µM | TGI (NCI-H522 lung): 32.8 µM | GI50 (SK-MEL-2 melanoma): 17.6 µM | TGI (SK-MEL-2 melanoma): 37.1 µM | GI50 (SK-OV-3 ovarian): 16.9 µM | TGI (SK-OV-3 ovarian): 33.8 µM

O=C1C(Cl)=C(Nc2cccc(O)c2)C(=O)N1c1ccc(Cl)cc1Cl
GI50 (BT-549 breast): 13.9 µM | TGI (BT-549 breast): 54.6 µM | GI50 (CAKI-1 renal): 12.9 µM | TGI (CAKI-1 renal): 45 µM | GI50 (DU-145 prostate): 23.1 µM | TGI (DU-145 prostate): 90.5 µM | GI50 (KM12 colon): 38.8 µM | TGI (KM12 colon): > 100 µM | GI50 (LOX IMVI melanoma): 19.3 µM | TGI (LOX IMVI melanoma): 48.3 µM | GI50 (MOLT-4 leukemia): 7.32 µM | TGI (MOLT-4 leukemia): 33.1 µM | GI50 (NCI-H460 lung): 27.5 µM | TGI (NCI-H460 lung): > 100 µM | GI50 (NCI-H522 lung): 13.8 µM | TGI (NCI-H522 lung): 32.9 µM | GI50 (SK-MEL-2 melanoma): 35 µM | TGI (SK-MEL-2 melanoma): 72.5 µM | GI50 (SK-OV-3 ovarian): 40.4 µM | TGI (SK-OV-3 ovarian): > 100 µM

O=C(Nc1cccc(-n2cc(-c3ccncc3)c(-c3ccc(O)c(Cl)c3)n2)c1)c1ccc(N2CCOCC2)c(C(F)(F)F)c1
GI50 (BT-549 breast): 2.35 µM | TGI (BT-549 breast): > 50 µM | GI50 (CAKI-1 renal): 2.24 µM | TGI (CAKI-1 renal): > 50 µM | GI50 (DU-145 prostate): > 50 µM | TGI (DU-145 prostate): > 50 µM | GI50 (KM12 colon): 1.12 µM | TGI (KM12 colon): > 50 µM | GI50 (LOX IMVI melanoma): 1.61 µM | TGI (LOX IMVI melanoma): > 50 µM | GI50 (MOLT-4 leukemia): 2.33 µM | TGI (MOLT-4 leukemia): > 50 µM | GI50 (NCI-H460 lung): 1.82 µM | TGI (NCI-H460 lung): > 50 µM | GI50 (NCI-H522 lung): 2.22 µM | TGI (NCI-H522 lung): > 50 µM | GI50 (SK-MEL-2 melanoma): 34 µM | TGI (SK-MEL-2 melanoma): > 50 µM | GI50 (SK-OV-3 ovarian): > 50 µM | TGI (SK-OV-3 ovarian): > 50 µM

Cc1ccc(C(CC(=O)c2ccccc2)C(C(=O)c2ccccc2)C(c2ccc(C)cc2)C2C(=O)NC(=S)NC2=O)cc1 (configuration not stated)
GI50 (BT-549 breast): 31.7 µM | TGI (BT-549 breast): > 50 µM | GI50 (CAKI-1 renal): 7.7 µM | TGI (CAKI-1 renal): 35 µM | GI50 (DU-145 prostate): 18.5 µM | TGI (DU-145 prostate): > 50 µM | GI50 (KM12 colon): 15 µM | TGI (KM12 colon): > 50 µM | GI50 (LOX IMVI melanoma): 17 µM | TGI (LOX IMVI melanoma): > 50 µM | GI50 (MOLT-4 leukemia): 8.85 µM | TGI (MOLT-4 leukemia): > 50 µM | GI50 (NCI-H460 lung): 6.66 µM | TGI (NCI-H460 lung): > 50 µM | GI50 (NCI-H522 lung): 7.87 µM | TGI (NCI-H522 lung): 30.2 µM | GI50 (SK-MEL-2 melanoma): 7.96 µM | TGI (SK-MEL-2 melanoma): > 50 µM | GI50 (SK-OV-3 ovarian): > 50 µM | TGI (SK-OV-3 ovarian): > 50 µM
